In patent publication US20050002879A1, “External skin compositions” (priority 2001, published 2005):

Legend:
Assay type in all cases: cell-based
[1] = tested on: Human keratinocytes; test: Test Example 3: hyaluronic acid production promotion test in human keratinocytes (â-carotene with or without NAG); details: â-carotene 10 mmol/L; for amount of hyaluronic acid: n=3, 24 hours
Protocol: (§1) Human keratinocytes (manufactured by Kurabo Industries, Ltd.) were seeded in a 24-well plate, cultured to confluence in a growth medium, and then 5 mmol/L of N-acetylglucosamine, 0.0001% of retinyl palmitate, 0.0001% of retinyl palmitate+5 mmol/L of N-acetylglucosamine, 1.0 mmol/L of retinoic acid, or 1.0 mmol/L of retinoic acid+5 mmol/L of N-acetylglucosamine were added, respectively. 24 hours after the addition, hyaluronic acid released into the medium was determined. The determination of hyaluronic acid was conducted using a commercially available hyaluronic acid determination kit (manufactured by Chugai Diagnostics Science).
Hyaluronic Acid Production Promotion Test to Human Keratinocytes)
In the same manner as in Test Example 1, the test was conducted and the amount of hyaluronic acid was determined (n=3). As the test substance, 10 mmol/L of â-carotene (hereinafter referred to as âCAR), NAG, and NAG+âCAR were used. The results are shown below and in FIG. 2.

[2] = tested on: Human keratinocytes; test: Test Example 2: hyaluronic acid production test in human keratinocytes (retinoids with or without NAG); details: RA 1 mmol/L, ROH 1 mmol/L, RPal 0.001%, RAce 0.001%, NAG 5 mmol/L; for amount of hyaluronic acid released into the medium: n=3, 24 hours
Protocol: as §1
Hyaluronic Acid Production Test to Human Keratinocytes
In the same manner as in Test Example 1, the test was conducted (n=3). As the test substance, 1 mmol/L of retinoic acid (hereinafter referred to as RA), 1 mmol/L of retinol (hereinafter referred to as ROH), 0.001% of retinyl palmitate (hereinafter referred to as RPal) and 0.001% of retinyl acetate (hereinafter referred to as RAce) were used, and the determination was conducted with respect to the case where 5 mmol/L of N-acetylglucosamine (hereinafter referred to as NAG) and each of the above test substances were simultaneously added. The results are shown below and in FIG. 1.

[3] = tested on: Human keratinocytes; test: Test Example 1: hyaluronic acid production test in human normal keratinocytes; details: N-acetylglucosamine 5 mmol/L, retinyl palmitate 0.0001%, retinoic acid 1.0 mmol/L; for production of hyaluronic acid increased, times as compared with the no-addition group: 24 hours; for Hyaluronic acid production promotion ratio (% ± S.D.): % of hyaluronic acid in medium without test substance, 24 hours after addition
Protocol: Hyaluronic Acid Production Test to Human Normal Keratinocytes)
as §1
The effects of test substances were defined as percentage (%) of the amount of hyaluronic acid in a cultured medium without a test substance.

Structure (SMILES) | amount of hyaluronic acid [1] [ig/well] | production of hyaluronic acid increased, times as compared with the no-addition group [1] [times] | production of hyaluronic acid increased, times as compared with the no-addition group [2] [times] | amount of hyaluronic acid released into the medium [2] [ig/well] | production of hyaluronic acid increased, times as compared with the no-addition group [3] [times] | Hyaluronic acid production promotion ratio (% ± S.D.) [3] [%]
CC1=CCCC(C)(C)C1/C=C/C(C)=C/C=C/C(C)=C/C=C/C=C(C)/C=C/C=C(C)/C=C/C1=C(C)CCCC1(C)C (centres unmarked) [â-carotene] | 0.16 | 1.1 | – | – | – | –
CC(=O)OC/C=C(C)/C=C/C=C(C)/C=C/C1=C(C)CCCC1(C)C [retinyl acetate] | – | – | 1.6 | 0.18 | – | –
CCCCCCCCCCCCCCCC(=O)OC/C=C(C)/C=C/C=C(C)/C=C/C1=C(C)CCCC1(C)C [retinyl palmitate] | – | – | 2.0 | 0.22 | 1.23 | 123 ± 16.4
CC1=C(/C=C/C(C)=C/C=C/C(C)=C/CO)C(C)(C)CCC1 [retinol] | – | – | 1.4 | 0.15 | – | –
CC1=C(/C=C/C(C)=C/C=C/C(C)=C/C(=O)O)C(C)(C)CCC1 [retinoic acid, reference compound] | – | – | 3.4 | 0.37 | 2.5 | 250 ± 20.8
CC(=O)N[C@H]1C(O)O[C@H](CO)[C@@H](O)[C@@H]1O (some centres unmarked) [N-acetylglucosamine] | 0.18 | 1.3 | 1.1 | 0.12 | 1.55 | 155 ± 11.8
